Assays:
[1] = physiological saline
[2] = In vitro dissociation in blood plasma of rabbit; type: in vitro ADME, New Zealand white rabbits; settings: fresh New Zealand white rabbit plasma, 37° C.
Method: The obtained water soluble taxane derivatives of the following formulae were formulated as 0.2 mg/ml aqueous solutions. […]

[3] = In vitro dissociation in blood plasma of rat; type: in vitro ADME, SD rats; settings: fresh SD rat plasma, 37° C.; for Sampling time/Dissociation percent (%) 2 min: 2 min incubation; for Sampling time/Dissociation percent (%) 5 min: 5 min incubation; for Sampling time/Dissociation percent (%) 10 min: 10 min incubation
Method: The obtained water soluble taxane derivatives of the following formulae were formulated as 0.2 mg/ml aqueous solutions. […] After 2 min, 5 min and 10 min of incubation, 0.2 ml of solutions were respectively taken from each of the samples, and added to acetonitrile (0.4 ml) cooled to −20° C. for precipitation of protein.

[4] = In vivo metabolic test of the water soluble paclitaxel derivatives in rats; settings: SD rats, 5 mg/kg intravenous, 5 min after administration, LC-MS
Method: After 5 min of administration, 0.3 ml of venous blood was taken from the retrobulbar venous plexus of the rats, placed in heparinized tubes, and centrifuged at 11.000 rpm for 5 min. Blood plasma was separated, and the concentrations of the compounds in the blood plasma were determined by liquid chromatography-mass spectrometry.

[5] = system: human ovarian cancer SK-OV-3; settings: 16 mg/kg, D0-4 IV
Source text: Purpose: to evaluate and compare the inhibitory activity of the water soluble paclitaxel derivatives, paclitaxel and Abraxane® on subcutaneously xenografted tumor of human ovarian cancer SK-OV-3 in nude mice.
Human ovarian cancer SK-OV-3 cells were subcutaneously inoculated to nude mice. After the tumor volume reached 100-150 mm^3, the animals were randomly divided into groups (D0), and administered with the water soluble paclitaxel derivatives of the following formula, paclitaxel, and Abraxane®, respectively once per day for 5 days. The tumor volume was measured 2-3 times per week, the animals were weighed and the data were recorded until day 22 (D22) after grouping.
The tumor volume (V) was calculated according to the equation: V=½×a×b^2, wherein a and b represent the length and the width, respectively.
T/C (%)=(T−T0)/(C−C0)×100, wherein T and C represent the tumor volume at the end of the experiment, and T0 and C0 represent the tumor volume at the beginning of the experiment.

[6] = D22, SK-OV-3 xenograft in nude mice

| SMILES | Solubility [1] [µg/mL] | Sampling time/Dissociation percent (%) 2 min [2] [%] | Sampling time/Dissociation percent (%) 5 min [2] [%] | Sampling time/Dissociation percent (%) 10 min [2] [%] | Sampling time/Dissociation percent (%) 2 min [3] [%] | Sampling time/Dissociation percent (%) 5 min [3] [%] | Sampling time/Dissociation percent (%) 10 min [3] [%] | detection of the administered compound in the blood plasma [4] | mean concentration of paclitaxel in the blood plasma [4] [ng/mL] | Body weight change (%) D4 ([5]; D4, nude mice) [%] | T/C (%) D22 [5, 6] [%] | Tumor volume (mm^3) (D22) [5, 6] | Tumor inhibitory percent (%) D22 ([5]; D22, SK-OV-3 xenograft in nude mice, P = 0.000 vs control) [%] | Tumor volume (mm^3) (D0) ([5]; baseline at grouping (D0), SK-OV-3 xenograft in nude mice) |
| --- | --- | --- | --- | --- | --- | --- | --- | --- | --- | --- | --- | --- | --- | --- |
| CC(=O)O[C@H]1C(=O)[C@]23C[C@H]2C[C@H]2OC[C@@]2(OC(C)=O)[C@H]3[C@H](OC(=O)c2ccccc2)[C@]2(O)C[C@H](OC(=O)[C@H](OC(=O)[C@H](F)CC(C)N(C)C)[C@@H](NC(=O)OC(C)(C)C)c3ccccc3)C(C)=C1C2(C)C.Cl (stereo partly drawn) [Compound C16, 2′-O-[4-N,N-dimethylamino-2(R)-fluorovaleryl]larotaxel hydrochloride] | 800 | 68.2 | 94.4 | 100 | 61.1 | 93.8 | 100 |  |  |  |  |  |  |  |
| CC(=O)O[C@@]12CO[C@@H]1C[C@H](O)[C@@]1(C)C(=O)[C@H](O)C3=C(C)[C@@H](OC(=O)[C@H](OC(=O)[C@H](F)CC(C)N(C)C)[C@@H](NC(=O)OC(C)(C)C)c4ccccc4)C[C@@](O)([C@@H](OC(=O)c4ccccc4)[C@H]21)C3(C)C.Cl (stereo partly drawn) [Compound C13, 2′-O-[4-N,N-dimethylamino-2(R)-fluorovaleryl]docetaxel hydrochloride] | 2300 | 46.2 | 78.9 | 93.4 | 44.8 | 84.8 | 92.7 |  |  |  |  |  |  |  |
| CCN(C)C(C)C[C@H](C(=O)O[C@@H](C(=O)O[C@H]1C[C@@]2(O)[C@@H](OC(=O)c3ccccc3)[C@@H]3[C@]4(OC(C)=O)CO[C@@H]4C[C@H](O)[C@@]3(C)C(=O)[C@H](O)C(=C1C)C2(C)C)[C@@H](NC(=O)OC(C)(C)C)c1ccccc1)C(C)(F)F.CS(=O)(=O)O (stereo partly drawn) [Compound C12, 2′-O-[4-N-methyl-N-ethylamino-2(R)-2-difluoroethylvaleryl]docetaxel methanesulfonate] | 11300 | 44.6 | 72.1 | 89.6 | 42.8 | 74.8 | 88.4 |  |  |  |  |  |  |  |
| CC(=O)O[C@@]12CO[C@@H]1CC[C@@]1(C)[C@@H]3O[C@H](CN(C)C)O[C@@H]3C3=C(C)[C@@H](OC(=O)[C@H](OC(=O)[C@H](F)CC(C)N(C)C)[C@@H](NC(=O)OC(C)(C)C)c4ncccc4F)C[C@@](O)([C@@H](OC(=O)c4ccccc4)[C@@H]12)C3(C)C.Cl (stereo partly drawn) [Compound C17, 2′-O-[4-N,N-dimethylamino-2(R)-fluorovaleryl]tesetaxel hydrochloride] | 1000 | 69.7 | 96.8 | 100 | 60.7 | 95.5 | 100 |  |  |  |  |  |  |  |
| CC(=O)O[C@H]1C(=O)[C@@]2(C)[C@H]([C@H](OC(=O)c3ccccc3)[C@]3(O)C[C@H](OC(=O)[C@H](OC(=O)[C@H](F)CCN(C)C)[C@@H](NC(=O)c4ccccc4)c4ccccc4)C(C)=C1C3(C)C)[C@]1(OC(C)=O)CO[C@@H]1C[C@@H]2O.Cl [Compound 01, 2′-O-[4-N,N-dimethylamino-2(R)-fluorobutyryl]paclitaxel hydrochloride] |  | 76.5 | 98.3 | 100 | 63.5 | 96.8 | 100 | cannot be detected |  |  |  |  |  |  |
| CC(=O)O[C@H]1C(=O)[C@@]2(C)[C@H]([C@H](OC(=O)c3ccccc3)[C@]3(O)C[C@H](OC(=O)[C@H](OC(=O)[C@@H](F)CCN(C)C)[C@@H](NC(=O)c4ccccc4)c4ccccc4)C(C)=C1C3(C)C)[C@]1(OC(C)=O)CO[C@@H]1C[C@@H]2O.Cl [Compound 02, 2′-O-[4-N,N-dimethylamino-2(S)-fluorobutyryl]paclitaxel hydrochloride] |  | 68.2 | 97.5 | 100 | 59.8 | 95.6 | 100 | cannot be detected | 1637 |  |  |  |  |  |
| CC(=O)O[C@H]1C(=O)[C@@]2(C)[C@H]([C@H](OC(=O)c3ccccc3)[C@]3(O)C[C@H](OC(=O)[C@H](O)[C@@H](NC(=O)c4ccccc4)c4ccccc4)C(C)=C1C3(C)C)[C@]1(OC(C)=O)CO[C@@H]1C[C@@H]2O [paclitaxel, reference compound] |  |  |  |  |  |  |  |  | 1793 | −4.8 | −60 | 53.7 ± 11.2 | 160 | 134.6 ± 19.7 |
| CC(=O)O[C@H]1C(=O)[C@@]2(C)[C@H]([C@H](OC(=O)c3ccccc3)[C@]3(O)C[C@H](OC(=O)[C@H](OC(=O)C(F)CCN(C)C)[C@@H](NC(=O)c4ccccc4)c4ccccc4)C(C)=C1C3(C)C)[C@]1(OC(C)=O)CO[C@@H]1C[C@@H]2O.Cl (stereo partly drawn) [Compound 03, 2′-O-[4-N,N-dimethylamino-2(R,S)-fluorobutyryl]paclitaxel hydrochloride] |  | 75.7 | 93.5 | 100 | 61.8 | 93.1 | 100 | cannot be detected | 1825 |  |  |  |  |  |
| CC(=O)OC12COC1CCC1(C)C3OC(CN(C)C)OC3C3=C(C)C(OC(=O)C(OC(=O)C(F)CC(C)N(C)C)C(NC(=O)OC(C)(C)C)c4ncccc4F)CC(O)(C(OC(=O)c4ccccc4)C12)C3(C)C.CS(=O)(=O)O [Compound 17, 2′-O-[4-N,N-dimethylamino-2(R)-fluorovaleryl]tesetaxel methanesulfonate] | 12300 | 62.7 | 93.4 | 100 | 59.3 | 93.5 | 100 |  |  |  |  |  |  |  |
| CC(=O)OC1C(=O)C23CC2CC2OCC2(OC(C)=O)C3C(OC(=O)c2ccccc2)C2(O)CC(OC(=O)C(OC(=O)C(F)CC(C)N(C)C)C(NC(=O)OC(C)(C)C)c3ccccc3)C(C)=C1C2(C)C.CS(=O)(=O)O [Compound 16, 2′-O-[4-N,N-dimethylamino-2(R)-fluorovaleryl]larotaxel methanesulfonate] | 11100 | 63.2 | 94.1 | 100 | 60.2 | 92.1 | 100 |  |  |  |  |  |  |  |

Source: patent US9650390B2, “Water-soluble taxane derivatives and uses thereof” (priority 2014, dated 2017)
